Reference: patent publication US20200222474A1, “COMPOSITIONS AND METHODS FOR INCREASING PHYTOCHEMICAL BIOAVAILABLITY AND BIOACTIVITY” (North Carolina State University, priority 2017, published 2020)

Key:
[1] = test system: NCK2426 (ΔLBA0225ΔLBA0726); assay: Phenotypic growth analysis of double phospho-β-glucosidase mutant; type: cell-based, Lactobacillus acidophilus; conditions: compared with background Δupp strain
Method: (§1) Phenotypic growth assays were performed using 1% (v/v) overnight cultures of L. acidophilus strains (Table 2) and other Lactobacillus species (Table 3) grown on SDM supplemented with 1% (w/v) glucose to inoculate 200 μL of SDM supplemented with 1% (w/v) of the examined carbohydrate (0.5% in the case of esculin) in 96-well microplate wells (Corning Costar, Corning, N.Y., USA) in duplicate or triplicate wells, respectively. The microplates were sealed with clear adhesive film, incubated at 37° C. in a Fluostar Optima microplate reader (BMG Labtech, Cary, N.C., USA), and the cell optical density (OD600) was monitored for 30 hours.
Construction of gene deletion mutants. The L. acidophilus NCFM genes LBA0225 and LBA0726, both encoding P-Bgl of glycoside hydrolase family 1 (GH1) enzymes in addition to the LBA0227 and LBA0725 genes encoding an EIIC and an EIICBA components of two PTS systems, respectively, were deleted using the upp-based counterselectable gene replacement system. […]
(§2) To establish the functional significance of these two loci, single deletions of each PTS EII and P-Bgl gene, and a double deletion of both P-Bgl genes were constructed using the upp-based counter-selectable gene replacement system (Table 2) and the growth phenotypes of the mutant strains were analyzed (FIG. 3). […]

L. acidophilus NCFM = assay: Growth of L. acidophilus NCFM on plant glycosides as single carbon source (OD600); type: cell-based, Lactobacillus acidophilus; conditions: for Growth (OD600 max class) of L. acidophilus NCFM: SDM + 1% (w/v) carbohydrate (0.5% esculin), 37° C., 30 hours, corrected to medium without carbohydrate; for OD600 max: single carbon source, 200 μl cultures, 96 microtitre plates, corrected for medium without carbon source
Method: For initial growth and gene expression studies, L. acidophilus NCFM was propagated three times in semi-defined medium (SDM) supplemented with either 1% or 0,5% (w/v) of the plant glycoside or carbohydrate (Table 1). For the RNA-seq analysis, cells were harvested by centrifugation (3,220×10 min, 25° C.) in the mid-exponential phase (OD600=0.6-0.8) and stored at −80° C. for subsequent RNA isolation. For the mass spectrometry metabolite analyses, 200 μt samples were taken at 0, 3, 6, 9, 12, and 24 hours of growth; cells were removed by centrifugation; and supernatants were stored at −80° C. for further analysis.
as §1
The growth of L. acidophilus NCFM was evaluated on twelve chemically diverse, nutritionally relevant and/or therapeutically active PGs 1; Table 1). FIG. 1A provides the structures and common sources of plant glycoside substrates described herein. The compounds that support growth of Lactobacillus acidophilus are in green. RI: β-D-Glcp; R2: Gentiobioside (β-D-Glcp-(1,6)-D-Glcp); R3: Rutinoside (α-L-Rhaf-(1,6)-D-Glcp). The graph in FIG. 1B depicts plant glycoside utilization analyzed by mass spectrometry and the growth as the maximum OD600. Due to the low solubility of polydatin, OD600 cannot be used as a growth metric and utilization of this compound is confirmed by the production of lactate as well as a high utilization level based on the metabolite analysis.

NCK2424 (ΔLBA0726) = assay: Phenotypic growth analysis of deletion mutant (phospho-β-glucosidase); type: cell-based, Lactobacillus acidophilus; conditions: compared with background Δupp strain
Method: as §1
Construction of gene deletion mutants. The L. acidophilus NCFM genes LBA0225 and LBA0726, both encoding P-Bgl of glycoside hydrolase family 1 (GH1) enzymes in addition to the LBA0227 and LBA0725 genes encoding an EIIC and an EIICBA components of two PTS systems, respectively, were deleted using the upp-based counterselectable gene replacement system. Briefly, in-frame deletions were constructed by amplifying 650-750 bp of the up- and downstream flanking regions of the deletion targets with two primer pairs (e.g., LBA0225A/LBA0225B and LBA0225C/LBA0225D; Table 4). The resulting purified products were joined by splicing using overlap extension PCR (SOE-PCR63) and amplified to establish the deletion alleles. The SOE-PCR products, that include flanking restriction enzyme sites, were cloned within the BamHI and SacI/EcoRI sites of the pTRK935 integration vector and transformed into E. coli EC101. […]
as §2

L. fermentum ATCC 14931 = assay: Phenotypic growth assay (OD600); type: cell-based; conditions: SDM + 1% (w/v) carbohydrate (0.5% esculin), 37° C., 30 hours; corrected to medium without carbohydrate
Outline: (§3)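 1% (v/v) o/n inoculum (SDM + 1% glucose) → SDM + 1% (w/v) test sugar (esculin 0.5%); 37° C., sealed; OD600 read over 30 h; duplicate/triplicate wells.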

L. animalis DSM 20602 = assay: Phenotypic growth assay (OD600); type: cell-based; conditions: SDM + 1% (w/v) carbohydrate (0.5% esculin), 37° C., 30 hours; corrected to medium without carbohydrate
Outline: as §3

L. acidophilus LA-1 = assay: Phenotypic growth assay (OD600); type: cell-based; conditions: SDM + 1% (w/v) carbohydrate (0.5% esculin), 37° C., 30 hours; corrected to medium without carbohydrate
Outline: as §3

L. johnsonii ATCC 33200 = assay: Phenotypic growth assay (OD600); type: cell-based; conditions: SDM + 1% (w/v) carbohydrate (0.5% esculin), 37° C., 30 hours; corrected to medium without carbohydrate
Outline: as §3

L. gasseri ATCC 33323 = assay: Phenotypic growth assay (OD600); type: cell-based; conditions: SDM + 1% (w/v) carbohydrate (0.5% esculin), 37° C., 30 hours; corrected to medium without carbohydrate
Outline: as §3

[2] = test system: L. plantarum sp. plantarum ATCC 14917, LA70; assay: Phenotypic growth assay (OD600); type: cell-based; conditions: SDM + 1% (w/v) carbohydrate (0.5% esculin), 37° C., 30 hours; corrected to medium without carbohydrate
Outline: as §3

L. helveticus CNRZ32 = assay: Phenotypic growth assay (OD600); type: cell-based; conditions: SDM + 1% (w/v) carbohydrate (0.5% esculin), 37° C., 30 hours; corrected to medium without carbohydrate
Outline: as §3

[3] = test system: L. intestinalis Th4, ATCC 49335, DSM 6629; assay: Phenotypic growth assay (OD600); type: cell-based; conditions: SDM + 1% (w/v) carbohydrate (0.5% esculin), 37° C., 30 hours; corrected to medium without carbohydrate
Outline: as §3

[4] = test system: L. amyloverus ATCC 33620, DSM 20531; assay: Phenotypic growth assay (OD600); type: cell-based; conditions: SDM + 1% (w/v) carbohydrate (0.5% esculin), 37° C., 30 hours; corrected to medium without carbohydrate
Outline: as §3

N#C[C@H](O[C@@H]1O[C@H](CO[C@@H]2O[C@H](CO)[C@@H](O)[C@H](O)[C@H]2O)[C@@H](O)[C@H](O)[C@H]1O)c1ccccc1 [Amygdalin]
growth of the double P-Bgl mutant (LBA0225/LBA0726) [1]: abolished | Growth (OD600 max class) of L. acidophilus NCFM (L. acidophilus NCFM): + (“+” signifies 0.3 > OD600 max > 0.1.) | OD600 max (L. acidophilus NCFM; growth concentration 1% (w/v)): 0.3 | growth of the ΔLBA0726 mutant (P-Bgl) (NCK2424 (ΔLBA0726)): severe reduction in growth | Growth (OD600 max class) of L. fermentum ATCC 14931 (L. fermentum ATCC 14931): − (“−” signifies OD600 max < 0.1.) | Growth (OD600 max class) of L. animalis DSM 20602 (L. animalis DSM 20602): − (“−” signifies OD600 max < 0.1.) | Growth (OD600 max class) of L. acidophilus LA-1 (L. acidophilus LA-1): ++ (“++” signifies 0.6 > OD600 max > 0.3.) | Growth (OD600 max class) of L. johnsonii ATCC 33200 (L. johnsonii ATCC 33200): − (“−” signifies OD600 max < 0.1.) | Growth (OD600 max class) of L. gasseri ATCC 33323 (L. gasseri ATCC 33323): − (“−” signifies OD600 max < 0.1.) | Growth (OD600 max class) of L. plantarum sp. plantarum ATCC 14917, LA70 [2]: +++ (“+++” signifies OD600 max > 0.6.) | Growth (OD600 max class) of L. helveticus CNRZ32 (L. helveticus CNRZ32): + (“+” signifies 0.3 > OD600 max > 0.1.) | Growth (OD600 max class) of L. intestinalis Th4, ATCC 49335, DSM 6629 [3]: − (“−” signifies OD600 max < 0.1.) | Growth (OD600 max class) of L. amyloverus ATCC 33620, DSM 20531 [4]: − (“−” signifies OD600 max < 0.1.)

O=c1ccc2cc(O[C@@H]3O[C@H](CO)[C@@H](O)[C@H](O)[C@H]3O)c(O)cc2o1 [Esculin]
Growth (OD600 max class) of L. acidophilus NCFM (L. acidophilus NCFM): ++ (“++” signifies 0.6 > OD600 max > 0.3.) | OD600 max (L. acidophilus NCFM; growth concentration 0.5% (w/v)): 0.4 | Growth (OD600 max class) of L. fermentum ATCC 14931 (L. fermentum ATCC 14931): − (“−” signifies OD600 max < 0.1.) | Growth (OD600 max class) of L. animalis DSM 20602 (L. animalis DSM 20602): + (“+” signifies 0.3 > OD600 max > 0.1.) | Growth (OD600 max class) of L. acidophilus LA-1 (L. acidophilus LA-1): +++ (“+++” signifies OD600 max > 0.6.) | Growth (OD600 max class) of L. johnsonii ATCC 33200 (L. johnsonii ATCC 33200): − (“−” signifies OD600 max < 0.1.) | Growth (OD600 max class) of L. gasseri ATCC 33323 (L. gasseri ATCC 33323): ++ (“++” signifies 0.6 > OD600 max > 0.3.) | Growth (OD600 max class) of L. plantarum sp. plantarum ATCC 14917, LA70 [2]: ++ (“++” signifies 0.6 > OD600 max > 0.3.) | Growth (OD600 max class) of L. helveticus CNRZ32 (L. helveticus CNRZ32): − (“−” signifies OD600 max < 0.1.) | Growth (OD600 max class) of L. intestinalis Th4, ATCC 49335, DSM 6629 [3]: − (“−” signifies OD600 max < 0.1.) | Growth (OD600 max class) of L. amyloverus ATCC 33620, DSM 20531 [4]: − (“−” signifies OD600 max < 0.1.)

OCc1ccccc1O[C@@H]1O[C@H](CO)[C@@H](O)[C@H](O)[C@H]1O [Salicin]
Growth (OD600 max class) of L. acidophilus NCFM (L. acidophilus NCFM): +++ (“+++” signifies OD600 max > 0.6.) | OD600 max (L. acidophilus NCFM; growth concentration 1% (w/v)): 0.8 | Growth (OD600 max class) of L. fermentum ATCC 14931 (L. fermentum ATCC 14931): − (“−” signifies OD600 max < 0.1.) | Growth (OD600 max class) of L. animalis DSM 20602 (L. animalis DSM 20602): + (“+” signifies 0.3 > OD600 max > 0.1.) | Growth (OD600 max class) of L. acidophilus LA-1 (L. acidophilus LA-1): +++ (“+++” signifies OD600 max > 0.6.) | Growth (OD600 max class) of L. johnsonii ATCC 33200 (L. johnsonii ATCC 33200): + (“+” signifies 0.3 > OD600 max > 0.1.) | Growth (OD600 max class) of L. gasseri ATCC 33323 (L. gasseri ATCC 33323): ++ (“++” signifies 0.6 > OD600 max > 0.3.) | Growth (OD600 max class) of L. plantarum sp. plantarum ATCC 14917, LA70 [2]: +++ (“+++” signifies OD600 max > 0.6.) | Growth (OD600 max class) of L. helveticus CNRZ32 (L. helveticus CNRZ32): − (“−” signifies OD600 max < 0.1.) | Growth (OD600 max class) of L. intestinalis Th4, ATCC 49335, DSM 6629 [3]: − (“−” signifies OD600 max < 0.1.) | Growth (OD600 max class) of L. amyloverus ATCC 33620, DSM 20531 [4]: − (“−” signifies OD600 max < 0.1.)
